This passage reports T/C results from PubChem BioAssay AID330 (DTP/NCI, 2004).

Several values for one entry are separate records, joined by “and”; a condition that tells them apart may be missing. Equal entries are not always repeated. Inconclusive results and toxic doses are left out. Square brackets hold non-standard residues; d marks the D form. Peptide text beside a SMILES is read from it. ξ: configuration not given here. ξPhe(4-N(CH2CH2Cl)2) = NC(Cc1ccc(N(CCCl)CCCl)cc1)C(=O)O

In this test the test system is P388 leukemia ip, CD2F1 mice, survival T/C. Kind of test: NCI In Vivo Anticancer Drug Screen. Data for tumor model P388 Leukemia (intraperitoneal) in CD2F1 (CDF1) mice. To be noted: endpoint: median survival time, higher = longer survival. Put shortly:
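Mice carrying the transplanted tumor received test compound or vehicle. Survival was recorded in each group, and the value is the treated-group measurement divided by that of the vehicle-treated control group.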

[1] abbreviates: dose: 50.0 mg/kg/injection, schedule: Q01DX005 (ip), vehicle: Klucel (hydroxypropylcellulose) (HPC).
Where [2] appears, read: dose: 100.0 mg/kg/injection, schedule: Q01DX005 (ip), vehicle: Klucel (hydroxypropylcellulose) (HPC).
[3] abbreviates: dose: 60.0 mg/kg/injection, schedule: Q01DX005 (ip), vehicle: saline with Tween-80.
Setting [4] is: dose: 120.0 mg/kg/injection, schedule: Q01DX005 (ip), vehicle: saline with Tween-80.
The mark [5] stands for this setting: dose: 240.0 mg/kg/injection, schedule: Q01DX005 (ip), vehicle: saline with Tween-80.
Where [6] appears, read: dose: 100.0 mg/kg/injection, schedule: Q01DX001 (ip), vehicle: saline with Tween-80.
The mark [7] stands for this setting: dose: 25.0 mg/kg/injection, schedule: Q01DX009 (ip), vehicle: saline with Tween-80.
Where [8] appears, read: dose: 50.0 mg/kg/injection, schedule: Q01DX009 (ip), vehicle: saline with Tween-80.
[9] abbreviates: dose: 60.0 mg/kg/injection, schedule: Q01DX005 (ip), vehicle: saline.
Setting [10] is: dose: 120.0 mg/kg/injection, schedule: Q01DX005 (ip), vehicle: saline.
Setting [11] is: dose: 50.0 mg/kg/injection, schedule: Q04DX003 (ip), vehicle: saline with Tween-80.
Setting [12] is: dose: 50.0 mg/kg/injection, schedule: Q01DX009 (ip), vehicle: Klucel (hydroxypropylcellulose) (HPC).
[13] abbreviates: dose: 100.0 mg/kg/injection, schedule: Q01DX009 (ip), vehicle: Klucel (hydroxypropylcellulose) (HPC).
Where [14] appears, read: dose: 25.0 mg/kg/injection, schedule: Q01DX009 (ip), vehicle: Klucel (hydroxypropylcellulose) (HPC).
The mark [15] stands for this setting: dose: 100.0 mg/kg/injection, schedule: Q04DX003 (ip), vehicle: saline with Tween-80.

Consider `CCOC(=O)C(Cc1ccc(N(CCCl)CCCl)cc1)NC(=O)C(CCC(=O)O)NC(=O)C(CO)NC(=O)C(CCC(=O)O)NC(=O)C(N)CO` (stereo not given) (H-SESE[ξPhe(4-N(CH2CH2Cl)2)]-OEt; configuration not given here), for which the T/C was 95 % of control (dose: 5.0 mg/kg/injection, schedule: Q04DX003 (ip), vehicle: water); 106 % of control (dose: 10.0 mg/kg/injection, schedule: Q04DX003 (ip), vehicle: water); 94 % of control (dose: 20.0 mg/kg/injection, schedule: Q04DX003 (ip), vehicle: water); 105 % of control and 119 % of control (dose: 40.0 mg/kg/injection, schedule: Q04DX003 (ip), vehicle: water).
As for `CC1CCCN(c2cc3nc[nH]c(=O)c3cc2[N+](=O)[O-])C1` (stereo not given), the T/C is, setting by setting: (dose: 100.0 mg/kg/injection, schedule: Q04DX003 (ip), vehicle: Klucel (hydroxypropylcellulose) (HPC)) 103 % of control; (dose: 200.0 mg/kg/injection, schedule: Q04DX003 (ip), vehicle: Klucel (hydroxypropylcellulose) (HPC)) 100 % of control; (dose: 400.0 mg/kg/injection, schedule: Q04DX003 (ip), vehicle: Klucel (hydroxypropylcellulose) (HPC)) 99 % of control.
`O=C(CI)Nc1ccc2[nH]c(=O)cc(C(=O)O)c2c1`: the T/C is 100 % of control (dose: 25.0 mg/kg/injection, schedule: Q01DX005 (ip), vehicle: Klucel (hydroxypropylcellulose) (HPC)); 101 % of control under setting [1]; 108 % of control under setting [2].
In the case of `CCc1cccc(C)c1NC(=O)C(=O)CC(=O)CS(=O)(=O)c1ccc(C)cc1`, the T/C under setting [3] was 109 % of control, the T/C under setting [4] is 111 % of control and the T/C under setting [5] is 104 % of control.
Consider `CCCCn1c(Cl)c(/C=N\Nc2ccc([N+](=O)[O-])cc2)c2ccccc21`, for which the T/C was 86 % of control (dose: 25.0 mg/kg/injection, schedule: Q01DX001 (ip), vehicle: saline with Tween-80); 103 % of control and 94 % of control under setting [6].
As for `NCCCCS(=O)(=O)Nc1ccc(Nc2c3ccccc3nc3cc([N+](=O)[O-])ccc23)cc1`, the T/C runs as follows: (dose: 22.0 mg/kg/injection, schedule: Q04DX003 (ip), vehicle: saline) 122 % of control; (dose: 38.9 mg/kg/injection, schedule: Q04DX003 (ip), vehicle: water) 164 % of control; (dose: 50.0 mg/kg/injection, schedule: Q04DX003 (ip), vehicle: saline) 150 % of control; (dose: 64.8 mg/kg/injection, schedule: Q04DX003 (ip), vehicle: water) 180 % of control; (dose: 75.0 mg/kg/injection, schedule: Q04DX003 (ip), vehicle: saline) 150 % of control; (dose: 108.0 mg/kg/injection, schedule: Q04DX003 (ip), vehicle: water) 198 % of control. The T/C (dose: 150.0 mg/kg/injection, schedule: Q04DX003 (ip), vehicle: saline) is 172 % of control; the T/C (dose: 180.0 mg/kg/injection, schedule: Q04DX003 (ip), vehicle: water) is 99 % of control; the T/C (dose: 300.0 mg/kg/injection, schedule: Q04DX003 (ip), vehicle: saline) was 118 % of control.
For `O=C(CBr)N1c2ccccc2Sc2ccc3ccccc3c21`, the T/C by setting is: under setting [7], 110 % of control and 120 % of control; under setting [8], 122 % of control.
In the case of `CCN(CC)CCNc1ccccc1`, the T/C reads like this: under setting [9], 99 % of control; under setting [10], 99 % of control.
As for `CC1(C)N=C(N)N=C(N)N1c1ccc(CCCCc2ccc(S(=O)(=O)F)cc2)cc1`, the T/C was 152 % of control (dose: 12.0 mg/kg/injection, schedule: Q01DX009 (ip), vehicle: saline sonified); 152 % of control (dose: 18.0 mg/kg/injection, schedule: Q01DX009 (ip), vehicle: saline sonified); 95 % of control under setting [8]; 100 % of control under setting [11].
With `CSc1ccccc1P(c1ccccc1)c1ccccc1SC`, the T/C was 90 % of control under setting [12]; 91 % of control under setting [13]; 91 % of control (dose: 200.0 mg/kg/injection, schedule: Q01DX009 (ip), vehicle: Klucel (hydroxypropylcellulose) (HPC)).
In the case of `O=C(O)c1cc(Cc2ccc(O)c(C(=O)O)c2)ccc1O` (tested in a mixture with another compound), the T/C is 112 % of control under setting [14]; 107 % of control and 115 % of control under setting [12]; 121 % of control under setting [13].
With `S=c1[nH]cc2cnccn12`, the T/C under setting [11] is 100 % of control; the T/C under setting [15] was 110 % of control; the T/C (dose: 200.0 mg/kg/injection, schedule: Q04DX003 (ip), vehicle: saline with Tween-80) was 110 % of control.
With `Nc1ncnc2nc(C3OC(CO)C(O)C3O)[nH]c12` (stereo not given), the T/C is 104 % of control under setting [3], 98 % of control under setting [4] and 95 % of control under setting [5].
Turning to `COC(=O)[C@]12C(=O)C=CC(=O)C1CC=CC2C(OC(C)=O)C(COC(C)=O)OC(C)=O` (stereo not given in full), the T/C by setting is: under setting [6], 103 % of control; (dose: 200.0 mg/kg/injection, schedule: Q01DX001 (ip), vehicle: saline with Tween-80) 100 % of control; (dose: 400.0 mg/kg/injection, schedule: Q01DX001 (ip), vehicle: saline with Tween-80) 103 % of control.
Take `C=C1C(=O)OC2/C=C(\C)CC/C=C(/C=O)C(OC(=O)C(C)C)C(O)C12` (stereo not given): under “dose: 8.0 mg/kg/injection, schedule: Q01DX009 (ip), vehicle: saline + alcohol”, the T/C was 97 % of control.
Take `O=C1C2CCC(C2)C1C(O)(C(F)(F)F)C(F)(F)F` (stereo not given): the T/C under setting [7] was 109 % of control; the T/C (dose: 25.0 mg/kg/injection, schedule: Q04DX003 (ip), vehicle: saline with Tween-80) was 109 % of control; the T/C under setting [8] is 100 % of control; the T/C under setting [11] is 100 % of control; the T/C (dose: 100.0 mg/kg/injection, schedule: Q01DX009 (ip), vehicle: saline with Tween-80) was 104 % of control; the T/C under setting [15] is 90 % of control.
As for `O=C(CNC(=O)c1ccc(Cl)cc1Cl)N/N=C/c1cccc([N+](=O)[O-])c1`, the T/C runs as follows: (dose: 3.13 mg/kg/injection, schedule: Q01DX009 (ip), vehicle: saline with Tween-80) 91 % of control; (dose: 6.25 mg/kg/injection, schedule: Q01DX009 (ip), vehicle: saline with Tween-80) 92 % of control; (dose: 12.5 mg/kg/injection, schedule: Q01DX009 (ip), vehicle: saline with Tween-80) 106 % of control.
For `Cc1ccc2c(c1)-c1oc(=O)c(C(N)=O)cc1C(C)O2` (stereo not given), the T/C reads like this: under setting [3], 92 % of control; under setting [4], 89 % of control; under setting [5], 87 % of control.
With `CC(C)=NNC1=NC(C)(C)P(=O)(NCC(=O)O)S1` (stereo not given), the T/C under setting [9] was 103 % of control; the T/C under setting [10] was 103 % of control; the T/C (dose: 240.0 mg/kg/injection, schedule: Q01DX005 (ip), vehicle: saline) was 100 % of control.
`CC1CC(=O)CCC2(C)C(OC(C)(C)C)CCC12` (stereo not given): the T/C is 100 % of control under setting [1]; 99 % of control under setting [2]; 99 % of control (dose: 200.0 mg/kg/injection, schedule: Q01DX005 (ip), vehicle: Klucel (hydroxypropylcellulose) (HPC)).
With `CCCCCCCCCCCCCCCc1cccc(OC)c1C(=O)O`, the T/C is, setting by setting: (dose: 7.5 mg/kg/injection, schedule: Q01DX009 (ip), vehicle: saline with Tween-80) 107 % of control; (dose: 15.0 mg/kg/injection, schedule: Q01DX009 (ip), vehicle: saline with Tween-80) 113 % of control; (dose: 30.0 mg/kg/injection, schedule: Q01DX009 (ip), vehicle: saline with Tween-80) 116 % of control.
For the molecule `N#CCc1c(Cl)n(-c2ccccc2)c2ccccc12`, the T/C by setting is: (dose: 100.0 mg/kg/injection, schedule: Q01DX001 (ip), vehicle: Klucel (hydroxypropylcellulose) (HPC)) 101 % of control; (dose: 200.0 mg/kg/injection, schedule: Q01DX001 (ip), vehicle: Klucel (hydroxypropylcellulose) (HPC)) 93 % of control; (dose: 400.0 mg/kg/injection, schedule: Q01DX001 (ip), vehicle: Klucel (hydroxypropylcellulose) (HPC)) 88 % of control.
As for `CCOC(=O)/C(C#N)=C(/SC)N1CC1`, the T/C (dose: 12.5 mg/kg/injection, schedule: Q01DX009 (ip), vehicle: Klucel (hydroxypropylcellulose) (HPC)) was 100 % of control; the T/C under setting [14] was 93 % of control; the T/C under setting [12] was 110 % of control and 90 % of control.
